Consider 10 compounds from patent US9394284B2, “Compounds act at multiple prostaglandin receptors giving a general anti-inflammatory response” (Allergan, Inc., priority 2010, dated 2016).

A value given as a limit tells only on which side of the number the result lay.

Holding throughout (format): cell-based
Assay [1] concerns the target T1, human prostanoid FP receptor (Homo sapiens, UniProt P43088).
T1 construct: expressed in transfected cells
The assay can be described thus: FLIPR Ca2+ signaling antagonist assay, FP receptor stable cell line. To be noted: HEK-293 EBNA stable cell line; standard agonist 17-phenyl-PGF2α; NA = inactive (no antagonism or Kb 10,000 nM); PAg, Ag not defined. On the procedure: (§1) The above compounds were tested for PG antagonist activity as follows using human recombinant prostanoid receptor (DP1, EP1-4, FP, IP and TP) stable cell lines:
(§2) In order to measure the response of Gs and Gi coupled prostanoid receptors as a Ca^2+ signal, chimeric G protein cDNAs were used. Stable cell lines over-expressing human prostanoid DP1, EP1-4, FP, IP, and TP receptors were established as follows:
(§3) Briefly, human prostanoid DP1, EP2, and EP4 receptor cDNAs were co-transfected with chimeric Gqs cDNA containing a haemagglutanin (HA) epitope; human prostanoid EP3 receptors were co-transfected with chimeric Gqi-HA; human EP1, FP, IP, and TP receptor cDNAs were expressed with no exogenous G-proteins. Gqs and Gqi chimeric cDNAs (Molecular Devices, Sunnyvale, Calif., U.S.A.), as well as cDNAs of prostanoid receptors, were cloned into a pCEP4 vector with a hygromycin B selection marker. Transfection into HEK-293 EBNA (Epstein-Barr virus nuclear antigen) cells was achieved by the FuGENE 6 transfection Reagent (Roche Applied Science, Indianapolis, Ind., USA). Stable transfectants were selected according to hygromycin resistance. Because Gqs and Gqi contained an HA epitope, G-protein expression was detected by Western blotting analysis using anti-mouse HA monoclonal antibody and horseradish peroxidase (HRP)-conjugated secondary antibody, while functional expression of prostanoid receptors was detected by FLIPR screening (Matias et al., 2004). These stable cell lines were validated using previously published antagonists at 10 μM against serial dilutions of standard agonists by FLIPR functional assays for Ca^2+ Signaling (as described below).
(§4) Ca^2+ signaling studies were performed using a FLIPR TETRA system (Molecular Devices, Sunnyvale, Calif., USA) in the 384-format. This is a high-throughput instrument for cell-based assays to monitor Ca^2+ signaling associated with GPCRs and ion channels. Cells were seeded at a density of 5×10^4 cells/well in BioCoat poly-D-lysine coated, black wall, clear bottom 384-well plates (BD Biosciences, Franklin lakes, NJ, USA) and allowed to attach overnight in an incubator at 37° C. The cells were then washed twice with HBSS-HEPES buffer (Hanks' balanced salt solution without bicarbonate and phenol red, 20 mM HEPES, pH 7.4) using an ELx405 Select CW Microplate Washer (BioTek, Winooski, Vt., USA). After 60 min of dye-loading in the dark using the Ca^2+-sensitive dye Fluo-4AM (Invitrogen, Carlsbad, Calif., USA), at a final concentration of 2×10^−6M, the plates were washed 4 times with HBSS-HEPES buffer to remove excess dye and leaving 50 μl of buffer in each well. The plates were then placed in the FLIPR TETRA instrument and allowed to equilibrate at 37° C. AGN-211377 was added in a 25 μl volume to each well to give final concentrations of 0.1 μM, 0.3 μM, 1 μM, 3 μM, 10 μM, and 30 μM; or 0.067 μM, 0.1 μM, 0.2 μM, 0.3 μM, 0.67 μM, and 1 μM for cells over-expressing TP receptors. After 4.5 minutes, a 7-point serial dilution of the standard agonist for the corresponding receptor, in a 25 μl volume was injected at the final concentrations from 10^−11M to 10^−5M in 10-fold serial dilution increments for cells expressing human recombinant DP1, EP1, EP2, EP3, EP4, FP, and IP receptors. The dose range for the standard agonist for human recombinant TP receptors was from 10^−12 M to 10^−6 M. HBSS-HEPES buffer was used as the negative control for the standard agonists. Cells were excited with LED (light emitting diode) excitation at 470-495 nm and emission was measured through an emission filter at 515-575 nm. Assay plates were read for 3.5 minutes using the FLIPR^TETRA. The peak increase in fluorescence intensity was recorded for each well. On each plate, negative controls, dose response of positive controls, and co-treatments of antagonist-agonist for each dose were in triplicates.
(§5) Standard agonists were as follows: DP=BW 245C, EP1-EP4=PGE2, FP=17-phenyl-PGF2α, IP=Cicaprost, and TP=U-46619. […]

Assay [2] has as its target T2, human prostanoid DP1 receptor (Homo sapiens, UniProt Q13258).
T2 construct: expressed in transfected cells
T2 sequence (Q13258 1-359): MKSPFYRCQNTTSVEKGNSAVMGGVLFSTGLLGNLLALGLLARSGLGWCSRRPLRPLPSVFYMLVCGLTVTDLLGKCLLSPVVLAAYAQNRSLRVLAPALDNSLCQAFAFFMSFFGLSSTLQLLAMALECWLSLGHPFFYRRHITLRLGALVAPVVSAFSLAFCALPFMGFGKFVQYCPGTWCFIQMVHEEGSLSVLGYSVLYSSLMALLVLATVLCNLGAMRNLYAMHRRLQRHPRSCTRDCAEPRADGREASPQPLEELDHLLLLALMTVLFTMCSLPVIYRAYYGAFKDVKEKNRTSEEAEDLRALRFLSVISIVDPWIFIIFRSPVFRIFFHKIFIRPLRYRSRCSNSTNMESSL
The assay is described as follows: FLIPR Ca2+ signaling antagonist assay, DP1 receptor stable cell line. To be noted: HEK-293 EBNA stable cell line; standard agonist BW 245C; NA = inactive (no antagonism or Kb 10,000 nM); PAg, Ag not defined. Here is the method: as §1, §2, §3, §4, §5

Assay [3] addresses T3, human prostanoid EP1 receptor (Homo sapiens, UniProt P34995).
T3 construct: expressed in transfected cells
T3 sequence (P34995 1-402): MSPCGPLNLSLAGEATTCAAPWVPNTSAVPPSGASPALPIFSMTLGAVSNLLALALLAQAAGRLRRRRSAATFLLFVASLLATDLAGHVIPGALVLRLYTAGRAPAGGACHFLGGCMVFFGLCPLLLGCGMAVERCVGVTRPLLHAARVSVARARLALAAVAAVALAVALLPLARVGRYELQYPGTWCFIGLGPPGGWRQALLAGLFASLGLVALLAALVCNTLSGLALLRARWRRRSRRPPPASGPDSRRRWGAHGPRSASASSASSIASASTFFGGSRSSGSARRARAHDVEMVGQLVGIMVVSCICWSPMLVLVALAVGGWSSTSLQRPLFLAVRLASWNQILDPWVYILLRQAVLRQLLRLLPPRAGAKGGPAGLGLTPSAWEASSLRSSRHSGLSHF
The assay is described as follows: FLIPR Ca2+ signaling antagonist assay, EP1 receptor stable cell line. As to conditions: HEK-293 EBNA stable cell line; standard agonist PGE2; NA = inactive (no antagonism or Kb 10,000 nM); PAg, Ag not defined. On the procedure:
as §1, §2, §3, §4, §5

Assay [4] has as its target T4, human prostanoid EP4 receptor (Homo sapiens, UniProt P35408).
T4 construct: expressed in transfected cells
The assay is described as follows: FLIPR Ca2+ signaling antagonist assay, EP4 receptor stable cell line. As to conditions: HEK-293 EBNA stable cell line; standard agonist PGE2; NA = inactive (no antagonism or Kb 10,000 nM); PAg, Ag not defined. Here is the method: as §1, §2, §3, §4, §5

The target of assay [5] is T5, human prostanoid IP receptor (Homo sapiens, UniProt P43119).
T5 construct: expressed in transfected cells
The assay is described as follows: FLIPR Ca2+ signaling antagonist assay, IP receptor stable cell line. To be noted: HEK-293 EBNA stable cell line; standard agonist Cicaprost; NA = inactive (no antagonism or Kb 10,000 nM); PAg, Ag not defined. On the procedure: as §1, §2, §3, §4, §5

For assay [6], the target named is T6, human prostanoid TP receptor (Homo sapiens, UniProt P21731).
T6 construct: expressed in transfected cells
T6 sequence (P21731 1-343): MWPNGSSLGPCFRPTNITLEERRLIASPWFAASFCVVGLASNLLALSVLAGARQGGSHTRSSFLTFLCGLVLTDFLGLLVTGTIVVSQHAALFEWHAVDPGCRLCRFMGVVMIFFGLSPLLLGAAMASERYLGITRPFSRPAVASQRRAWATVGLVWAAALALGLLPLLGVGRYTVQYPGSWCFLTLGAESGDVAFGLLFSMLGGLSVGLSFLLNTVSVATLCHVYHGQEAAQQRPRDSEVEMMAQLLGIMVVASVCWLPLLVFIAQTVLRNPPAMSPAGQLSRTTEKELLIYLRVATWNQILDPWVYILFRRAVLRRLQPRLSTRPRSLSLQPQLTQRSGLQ
The assay is described as follows: FLIPR Ca2+ signaling antagonist assay, TP receptor stable cell line. To be noted: HEK-293 EBNA stable cell line; standard agonist U-46619; NA = inactive (no antagonism or Kb 10,000 nM); PAg, Ag not defined. Here is the method:
as §1, §2, §3, §4, §5

T4 sequence (P35408 whole entry): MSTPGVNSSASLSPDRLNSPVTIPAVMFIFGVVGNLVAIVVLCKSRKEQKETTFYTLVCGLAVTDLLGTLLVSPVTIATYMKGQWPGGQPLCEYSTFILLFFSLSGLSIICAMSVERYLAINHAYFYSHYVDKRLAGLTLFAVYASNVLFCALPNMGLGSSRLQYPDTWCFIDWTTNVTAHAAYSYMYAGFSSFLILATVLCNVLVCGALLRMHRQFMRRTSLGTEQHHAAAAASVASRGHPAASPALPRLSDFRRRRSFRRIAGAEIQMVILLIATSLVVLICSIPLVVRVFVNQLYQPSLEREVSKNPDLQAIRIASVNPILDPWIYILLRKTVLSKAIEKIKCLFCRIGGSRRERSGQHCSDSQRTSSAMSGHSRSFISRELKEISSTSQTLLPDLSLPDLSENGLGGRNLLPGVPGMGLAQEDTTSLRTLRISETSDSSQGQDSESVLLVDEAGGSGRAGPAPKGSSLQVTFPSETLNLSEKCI
T1 sequence (P43088 whole entry): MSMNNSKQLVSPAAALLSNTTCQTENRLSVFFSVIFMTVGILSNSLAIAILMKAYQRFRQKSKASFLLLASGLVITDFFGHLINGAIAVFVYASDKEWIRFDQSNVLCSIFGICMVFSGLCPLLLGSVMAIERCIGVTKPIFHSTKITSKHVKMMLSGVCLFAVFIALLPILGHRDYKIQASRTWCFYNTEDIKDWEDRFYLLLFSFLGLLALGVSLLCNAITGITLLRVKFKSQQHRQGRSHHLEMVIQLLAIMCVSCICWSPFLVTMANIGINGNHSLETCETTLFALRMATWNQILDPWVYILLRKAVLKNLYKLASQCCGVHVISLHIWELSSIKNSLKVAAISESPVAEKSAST
T5 sequence (P43119 whole entry): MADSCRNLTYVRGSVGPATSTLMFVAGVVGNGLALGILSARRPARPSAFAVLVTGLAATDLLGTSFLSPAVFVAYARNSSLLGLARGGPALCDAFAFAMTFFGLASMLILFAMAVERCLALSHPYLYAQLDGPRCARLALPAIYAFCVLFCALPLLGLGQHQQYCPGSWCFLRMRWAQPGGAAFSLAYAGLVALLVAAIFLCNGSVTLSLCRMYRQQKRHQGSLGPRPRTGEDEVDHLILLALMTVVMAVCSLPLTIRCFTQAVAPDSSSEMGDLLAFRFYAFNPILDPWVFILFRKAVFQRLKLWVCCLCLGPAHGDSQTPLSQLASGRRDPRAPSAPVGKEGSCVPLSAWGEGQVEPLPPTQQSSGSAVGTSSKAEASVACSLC

Turning to `COc1ccc(OCC2CCCC2)c(Cn2nc(CCC(=O)O)cc2C)c1` [Example 53, 3-[1-(2-Cyclopentylmethoxy-5-methoxy-benzyl)-5-methyl-1H-pyrazol-3-yl]-propionic acid], the Kb in assay [1] worked out at 1900 nM; in assay [2], 1500 nM; in assay [3] it was 600 nM; in assay [4] it was 1890 nM; in assay [5], 6900 nM; in assay [6] it was 700 nM.
Regarding `CCC(C)COc1ccc(Br)cc1Cn1nc(CCC(=O)O)cc1C` (stereo not drawn) [Example 10, 3-[1-(5-Bromo-2-(2-methyl-butoxy)-benzyl)-5-methyl-1H-pyrazol-3-yl]-propionic acid], the Kb in assay [1] was found to be 70 nM; in assay [2], 360 nM; in assay [3] it was 12 nM; in assay [4], 100 nM; in assay [5] it was 4200 nM; in assay [6] it was 2 nM.
As for `Cc1cc(CC(C)C(=O)O)nn1Cc1cc(Cl)ccc1OCC1CCCC1` (racemic) [Example 70, 3-{1-[5-Chloro-2-(2-cyclopentylmethoxy)-benzyl]-5-methyl-1H-pyrazol-3-yl}-2-methyl-propionic acid], the Kb in assay [1] amounted to 130 nM; in assay [2] it was 450 nM; in assay [3], 30 nM; in assay [4], 80 nM; in assay [5] it was 2000 nM; in assay [6] it was 120 nM.
Consider `CCC(CC)COc1ccc(Br)cc1Cn1nc(CC(C)C(=O)O)cc1C` (stereo not drawn) [Example 67, 3-{1-[5-Bromo-2-(2-ethyl-butoxy)-benzyl]-5-methyl-1H-pyrazol-3-yl}-2-methyl-propionic acid], for which the Kb turned out to be 140 nM in assay [1]; 400 nM in assay [2]; 10 nM in assay [3]; 70 nM in assay [4]; 1500 nM in assay [5]; 20 nM in assay [6].
Consider `CCc1ccc(OCC(CC)CC)c(Cn2nc(CCC(=O)O)cc2C)c1` [Example 66, 3-{1-[5-Ethyl-2-(2-ethyl-butoxy)-benzyl]-5-methyl-1H-pyrazol-3-yl}-propionic acid], for which the Kb is 500 nM in assay [1]; 260 nM in assay [2]; 100 nM in assay [3]; 900 nM in assay [4]; 1500 nM in assay [5]; 8 nM in assay [6].
Consider `Cc1cc(CCC(=O)O)nn1Cc1cc(Cl)ccc1C#CCC(C)C` [Example 76, 3-{1-[5-Chloro-2-(4-methylpentynyl)-benzyl]-5-methyl-1H-pyrazol-3-yl}-propionic acid], for which the Kb was found to be 160 nM in assay [1]; 200 nM in assay [3]; 1200 nM in assay [4]; 4500 nM in assay [5]; 7 nM in assay [6]. In addition, the “DP1 (FLIPR) Kb” value in assay [2] is reported as “PAg”.
Take `C/C=C(\C)COc1ccc(Br)cc1Cn1nc(CCC(=O)O)cc1C` [Example 9, 3-[1-(5-Bromo-2-((E)-2-methyl-but-2-enyloxy)-benzyl)-5-methyl-1H-pyrazol-3-yl]-propionic acid]: the Kb is 400 nM in assay [1]; 750 nM in assay [2]; 11 nM in assay [3]; 600 nM in assay [4]; 4800 nM in assay [5]; 2 nM in assay [6].
In the case of `CCC(CC)COc1ccc(C(F)(F)F)cc1Cn1nc(CCC(=O)O)cc1C` [Example 46, 3-[1-[2-(2-Ethyl-butoxy)-5-trifluoromethyl-benzyl]-5-methyl-1H-pyrazol-3-yl]-propionic acid], the Kb in assay [1] amounted to 240 nM; in assay [2], 700 nM; in assay [3], 40 nM; in assay [4], 170 nM; in assay [5] it was 2100 nM; in assay [6], 3 nM.
Regarding `CCC(CC)COc1ccc(C#N)cc1Cn1nc(CCC(=O)O)cc1C` [Example 60, 3-{1-[5-Cyano-2-(2-ethyl-butoxy)-benzyl]-5-methyl-1H-pyrazol-3-yl}-propionic acid], the Kb was found to be 1400 nM in assay [1]; 4400 nM in assay [2]; 2100 nM in assay [3]; 2400 nM in assay [4]; 5400 nM in assay [5]; 120 nM in assay [6].
`CCC(C)CCOc1ccc(Cl)cc1Cn1nc(CCC(=O)O)cc1C` (stereo not drawn) [Example 22, 3-[1-(5-Chloro-2-(3-methylpentyloxy)benzyl)-5-methyl-1H-pyrazol-3-yl]-propionic acid]: the Kb was 90 nM in assay [1]; 340 nM in assay [2]; 140 nM in assay [3]; 600 nM in assay [4]; 5200 nM in assay [5]; < 1 nM in assay [6].
